Read-outs that look alike come from different tables or passages of the source.
Legend:
[1] = test system: large crabgrass; test: Test B pre-/postemergence herbicide test; type: in vivo, Digitaria sanguinalis; details: Digitaria sanguinalis; for pest or weed control at 125 g/ha: 125 g ai/ha; for pest or weed control at 500 g/ha: 500 g ai/ha
In short: (§1)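 Greenhouse pot assay with simultaneous preemergence (treated seed) and postemergence (2–18 cm seedlings) applications of surfactant-containing, non-phytotoxic solvent formulations. Response scored visually 13–15 days later on a 0–100 scale, 100 meaning complete control.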

[2] = test system: pigweed; test: Test B pre-/postemergence herbicide test; type: in vivo, Amaranthus retroflexus; details: Amaranthus retroflexus, 336 h; for pest or weed control at 125 g/ha: 125 g ai/ha; for pest or weed control at 500 g/ha: 500 g ai/ha
In short: as §1

[3] = test system: barnyardgrass; test: Test B pre-/postemergence herbicide test; type: in vivo, Echinochloa crus-galli; details: Echinochloa crus-galli; for pest or weed control at 125 g/ha: 125 g ai/ha; for pest or weed control at 500 g/ha: 500 g ai/ha
In short: (§2)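 Formulation: non-phytotoxic solvent mix with surfactant. Timing: preemergence on seed and postemergence on 2–18 cm plants, applied concurrently. Readout after 13–15 d greenhouse: visual 0–100 control rating against controls.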

[4] = test system: ducksalad; test: Test B flooded paddy test; type: in vivo, Heteranthera limosa; details: Heteranthera limosa, 336 h, 1000 g ai/ha, visual rating, scale 0 to 100 (0 no effect, 100 complete control), 13 to 15 days, read-out: Ducksalad plant response rating
In short: (§3)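 Scale 0–100: zero equals no visible effect, 100 complete control, judged by eye relative to controls. Timing: 13 to 15 days in greenhouse post-treatment. Growth stage at spraying: two leaves (paddy) or one to four leaves, 2–18 cm (postemergence).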

[5] = test system: velvetleaf; test: Test B pre-/postemergence herbicide test; type: in vivo, Abutilon theophrasti; details: Abutilon theophrasti, 336 h; for pest or weed control at 125 g/ha: 125 g ai/ha; for pest or weed control at 500 g/ha: 500 g ai/ha
In short: as §1

[6] = test system: morningglory; test: Test B pre-/postemergence herbicide test; type: in vivo, Ipomoea coccinea; details: Ipomoea, 336 h; for pest or weed control at 125 g/ha: 125 g ai/ha; for pest or weed control at 500 g/ha: 500 g ai/ha
In short: as §2

[7] = test system: blackgrass; test: Test B postemergence herbicide test; type: in vivo, Alopecurus myosuroides; details: Alopecurus myosuroides, post-emergence, 336 h, postemergence, visual rating, scale 0 (no effect) to 100 (complete control), read-out: Blackgrass plant response rating
In short: as §3

[8] = test system: Surinam grass; test: Test B pre-/postemergence herbicide test; type: in vivo, Urochloa decumbens; details: Urochloa decumbens; for pest or weed control at 125 g/ha: 125 g ai/ha; for pest or weed control at 500 g/ha: 500 g ai/ha
In short: as §1

[9] = test system: wheat; test: Test B postemergence herbicide test; type: in vivo, Triticum aestivum; details: Triticum aestivum, post-emergence, 336 h, postemergence, 500 g ai/ha; visual rating, scale 0 (no effect) to 100 (complete control); read-out: Wheat plant response rating
In short: (§4)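 Greenhouse test; postemergence application to plants at 1–4 leaves (2–18 cm); paddy species at 2 leaves; evaluated visually vs controls at 13–15 days; scale 0–100 (100 = complete control).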

[10] = test system: giant foxtail; test: Test B pre-/postemergence herbicide test; type: in vivo, Setaria faberi; details: Setaria faberi, 336 h; for pest or weed control at 125 g/ha: 125 g ai/ha; for pest or weed control at 500 g/ha: 500 g ai/ha
In short: as §1

[11] = test system: cocklebur; test: Test B pre-/postemergence herbicide test; type: in vivo, Xanthium strumarium; details: Xanthium strumarium; for pest or weed control at 125 g/ha: 125 g ai/ha; for pest or weed control at 500 g/ha: 500 g ai/ha
In short: as §2

[12] = test system: lambsquarters; test: Test B pre-/postemergence herbicide test; type: in vivo, Chenopodium album; details: Chenopodium album, 336 h; for pest or weed control at 125 g/ha: 125 g ai/ha; for pest or weed control at 500 g/ha: 500 g ai/ha
In short: as §1

[13] = test system: small flower umbrella sedge; test: Test B flooded paddy test; type: in vivo, Cyperus difformis; details: Cyperus difformis, 336 h, 1000 g ai/ha, visual rating, scale 0 to 100 (0 no effect, 100 complete control), 13 to 15 days, read-out: Sedge, Umbrella plant response rating
In short: as §3

[14] = test system: rice; test: Test B flooded paddy test; type: in vivo, Oryza sativa; details: Oryza sativa, 336 h, 1000 g ai/ha, visual rating, scale 0 to 100 (0 no effect, 100 complete control), 13 to 15 days, read-out: Rice plant response rating
In short: as §4

[15] = test system: barnyardgrass; test: Test B flooded paddy test; type: in vivo, Echinochloa crus-galli; details: Echinochloa crus-galli, 336 h, 1000 g ai/ha, visual rating, scale 0 to 100 (0 no effect, 100 complete control), 13 to 15 days, read-out: Barnyardgrass plant response rating
In short: as §3

[16] = post-emergence, postemergence, visual rating, scale 0 (no effect) to 100 (complete control), read-out: Crabgrass, Large plant response rating
[17] = post-emergence, postemergence, visual rating, scale 0 (no effect) to 100 (complete control), read-out: Pigweed plant response rating
[18] = post-emergence, postemergence, visual rating, scale 0 (no effect) to 100 (complete control), read-out: Barnyardgrass plant response rating
[19] = post-emergence, postemergence, visual rating, scale 0 (no effect) to 100 (complete control), read-out: Velvetleaf plant response rating
[20] = post-emergence, postemergence, visual rating, scale 0 (no effect) to 100 (complete control), read-out: Morningglory plant response rating
[21] = post-emergence, postemergence, visual rating, scale 0 (no effect) to 100 (complete control), read-out: Surinam Grass plant response rating
[22] = post-emergence, postemergence, visual rating, scale 0 (no effect) to 100 (complete control), read-out: Foxtail, Giant plant response rating
[23] = post-emergence, postemergence, visual rating, scale 0 (no effect) to 100 (complete control), read-out: Cocklebur plant response rating
[24] = post-emergence, postemergence, visual rating, scale 0 (no effect) to 100 (complete control), read-out: Lambsquarters plant response rating

Q: With `CCn1nc(C(C)(C)C)cc1C(=O)Nc1cccc(C(=O)OC)n1` [Compound 143, methyl 6-[[[3-(1,1-dimethylethyl)-1-ethyl-1H-pyrazol-5-yl]carbonyl]amino]-2-pyridinecarboxylate] as the molecule, how does the pest or weed control at 125 g/ha [1, 16] read?
A: 0%

Q: And the pest or weed control at 500 g/ha [1, 16]?
A: 0%

Q: What about the pest or weed control at 500 g/ha ([1]; pre-emergence, visual rating 0-100, 0 no effect, 100 complete control, read-out: Plant response rating, Crabgrass, Large) of the same molecule?
A: 0%

Q: And the pest or weed control at 125 g/ha ([1]; pre-emergence, preemergence, 0 to 100 scale, 0 is no effect, 100 is complete control, read-out: Plant response rating, Crabgrass, Large)?
A: 0%

Q: And the pest or weed control at 125 g/ha [2, 17]?
A: 0%

Q: And the pest or weed control at 500 g/ha [2, 17]?
A: 20%

Q: And the pest or weed control at 500 g/ha ([2]; pre-emergence, visual rating 0-100, 0 no effect, 100 complete control, read-out: Plant response rating, Pigweed)?
A: 0%

Q: And the pest or weed control at 125 g/ha ([2]; pre-emergence, preemergence, 0 to 100 scale, 0 is no effect, 100 is complete control, read-out: Plant response rating, Pigweed)?
A: 0%

Q: And the pest or weed control at 125 g/ha [3, 18]?
A: 0%

Q: And the pest or weed control at 500 g/ha [3, 18]?
A: 0%

Q: What about the pest or weed control at 500 g/ha ([3]; pre-emergence, visual rating 0-100, 0 no effect, 100 complete control, read-out: Plant response rating, Barnyardgrass) of the same molecule?
A: 0%

Q: What about the pest or weed control at 125 g/ha ([3]; pre-emergence, preemergence, 0 to 100 scale, 0 is no effect, 100 is complete control, read-out: Plant response rating, Barnyardgrass) of the same molecule?
A: 0%

Q: And the pest or weed control at 1000 g/ha [4]?
A: 0%

Q: What about the pest or weed control at 125 g/ha [5, 19] of the same molecule?
A: 0%

Q: What about the pest or weed control at 500 g/ha [5, 19] of the same molecule?
A: 20%

Q: And the pest or weed control at 500 g/ha ([5]; pre-emergence, visual rating 0-100, 0 no effect, 100 complete control, read-out: Plant response rating, Velvetleaf)?
A: 0%

Q: What about the pest or weed control at 125 g/ha ([5]; pre-emergence, preemergence, 0 to 100 scale, 0 is no effect, 100 is complete control, read-out: Plant response rating, Velvetleaf) of the same molecule?
A: 0%

Q: And the pest or weed control at 125 g/ha [6, 20]?
A: 0%

Q: What about the pest or weed control at 500 g/ha [6, 20] of the same molecule?
A: 0%

Q: What about the pest or weed control at 500 g/ha ([6]; pre-emergence, visual rating 0-100, 0 no effect, 100 complete control, read-out: Plant response rating, Morningglory) of the same molecule?
A: 0%

Q: And the pest or weed control at 125 g/ha ([6]; pre-emergence, preemergence, 0 to 100 scale, 0 is no effect, 100 is complete control, read-out: Plant response rating, Morningglory)?
A: 0%

Q: And the pest or weed control at 125 g/ha ([7]; 125 g ai/ha)?
A: 0%

Q: What about the pest or weed control at 500 g/ha ([7]; 500 g ai/ha) of the same molecule?
A: 0%

Q: And the pest or weed control at 125 g/ha [8, 21]?
A: 10%

Q: What about the pest or weed control at 500 g/ha [8, 21] of the same molecule?
A: 10%

Q: What about the pest or weed control at 500 g/ha ([8]; pre-emergence, visual rating 0-100, 0 no effect, 100 complete control, read-out: Plant response rating, Surinam Grass) of the same molecule?
A: 0%

Q: And the pest or weed control at 125 g/ha ([8]; pre-emergence, preemergence, 0 to 100 scale, 0 is no effect, 100 is complete control, read-out: Plant response rating, Surinam Grass)?
A: 0%

Q: What about the plant injury at 500 g/ha [9] of the same molecule?
A: 0%

Q: And the pest or weed control at 125 g/ha [10, 22]?
A: 0%

Q: What about the pest or weed control at 500 g/ha [10, 22] of the same molecule?
A: 0%

Q: What about the pest or weed control at 500 g/ha ([10]; pre-emergence, visual rating 0-100, 0 no effect, 100 complete control, read-out: Plant response rating, Foxtail, Giant) of the same molecule?
A: 0%

Q: What about the pest or weed control at 125 g/ha ([10]; pre-emergence, preemergence, 0 to 100 scale, 0 is no effect, 100 is complete control, read-out: Plant response rating, Foxtail, Giant) of the same molecule?
A: 0%

Q: What about the pest or weed control at 125 g/ha [11, 23] of the same molecule?
A: 0%

Q: And the pest or weed control at 500 g/ha [11, 23]?
A: 0%

Q: What about the pest or weed control at 500 g/ha ([11]; pre-emergence, visual rating 0-100, 0 no effect, 100 complete control, read-out: Plant response rating, Cocklebur) of the same molecule?
A: 0%

Q: And the pest or weed control at 125 g/ha ([11]; pre-emergence, preemergence, 0 to 100 scale, 0 is no effect, 100 is complete control, read-out: Plant response rating, Cocklebur)?
A: 0%

Q: What about the pest or weed control at 125 g/ha [12, 24] of the same molecule?
A: 0%

Q: What about the pest or weed control at 500 g/ha [12, 24] of the same molecule?
A: 20%

Q: And the pest or weed control at 500 g/ha ([12]; pre-emergence, visual rating 0-100, 0 no effect, 100 complete control, read-out: Plant response rating, Lambsquarters)?
A: 0%

Q: And the pest or weed control at 125 g/ha ([12]; pre-emergence, preemergence, 0 to 100 scale, 0 is no effect, 100 is complete control, read-out: Plant response rating, Lambsquarters)?
A: 0%

Q: What about the pest or weed control at 1000 g/ha [13] of the same molecule?
A: 0%

Q: And the plant injury at 1000 g/ha [14]?
A: 0%

Q: What about the pest or weed control at 1000 g/ha [15] of the same molecule?
A: 0%
